Key:
Format in all cases: biochemical
[1] = test system: T1, β-D-glucuronidase (E. coli); experiment: Glycosidase inhibition (Table 2 panel)
T1 construct: purchased Sigma-Aldrich
Source text: (§1) The enzymes α-D-glucosidase (yeast), β-D-glucosidases (almond, bovine liver), α-D-galactosidase (coffee beans), β-D-galactosidase (bovine liver), α-D-mannosidase (Jack bean), β-D-mannosidase (snail), α-L-rhamnosidase (P. decumbens), α-L-fucosidase (bovine kidney), trehalase (porcine kidney), β-D-glucuronidases (E. coli, bovine liver), amyloglucosidase (A. niger), para-nitrophenyl glycosides, and various disaccharides were purchased from Sigma-Aldrich Co (St. Louis, MO, USA).
(§2) Brush border membranes were prepared from the rat small intestine according to the method of Kessler et al., and were assayed at pH 6.8 for rat intestinal maltase using maltose. […] The reaction was stopped by heating at 100 °C for 3 min. After centrifugation (600 g; 10 min), the resulting reaction mixture was added to the Glucose CII-test Wako (Wako Pure Chemical Ind., Osaka, Japan). […] Other glycosidase activities were determined using an appropriate para-nitrophenyl glycoside as substrate at the optimum pH of each enzyme. The reaction mixture contained the substrate ([…]) and the appropriate amount of enzyme. The reaction was stopped by the addition of Na2CO3 (400 μM). The released para-nitrophenol was measured spectrometrically at 400 nm. All reactions were run in methanol.

[2] = test system: T2, amyloglucosidase (A. niger); experiment: Glycosidase inhibition (Table 2 panel)
T2 construct: purchased Sigma-Aldrich
Source text: as §1, §2

[3] = test system: T3, α-L-fucosidase (bovine kidney); experiment: Glycosidase inhibition (Table 2 panel)
T3 construct: purchased Sigma-Aldrich; host or cells: bovine kidney
Method in brief: (§3)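 Enzyme is mixed with its para-nitrophenyl glycoside substrate […] at optimal pH […]. The reaction is terminated by Na2CO3 […], and para-nitrophenol release is quantified spectrophotometrically at 400 nm.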

[4] = test system: β-D-glucuronidase (bovine liver); experiment: Glycosidase inhibition (Table 2 panel)
Method in brief: as §3

[5] = target: T4, β-D-galactosidase (bovine liver) (Bos taurus, UniProt F1MNT6); experiment: Glycosidase inhibition (Table 2 panel)
T4 sequence (F1MNT6 1-469): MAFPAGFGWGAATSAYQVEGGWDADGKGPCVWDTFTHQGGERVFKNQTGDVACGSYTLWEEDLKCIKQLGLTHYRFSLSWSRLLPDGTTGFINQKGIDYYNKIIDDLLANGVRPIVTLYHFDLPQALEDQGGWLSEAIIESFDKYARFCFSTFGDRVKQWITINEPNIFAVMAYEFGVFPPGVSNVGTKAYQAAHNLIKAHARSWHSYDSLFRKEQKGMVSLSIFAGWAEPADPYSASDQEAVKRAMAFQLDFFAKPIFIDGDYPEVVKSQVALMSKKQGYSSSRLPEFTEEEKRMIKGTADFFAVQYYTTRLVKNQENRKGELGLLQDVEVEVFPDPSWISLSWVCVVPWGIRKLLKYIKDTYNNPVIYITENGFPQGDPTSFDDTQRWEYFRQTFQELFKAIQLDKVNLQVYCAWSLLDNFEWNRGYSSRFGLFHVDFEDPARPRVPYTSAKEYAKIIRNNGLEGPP
Method in brief: as §3

[6] = test system: T5, α-D-mannosidase (Jack bean); experiment: Glycosidase inhibition (Table 2 panel)
T5 construct: purchased Sigma-Aldrich; host or cells: Jack bean
Method in brief: as §3

several glycosidases = experiment: Glycosidase inhibition, whole Table 3 panel; settings: Table 3 assay conditions
Procedure: (§4) All enzymes and para-nitrophenyl substrates were purchased from Sigma. Enzymes were assayed at 27 °C in citric acid (0.1 M)/disodium hydrogen phosphate (0.2 M) buffers at the optimum pH for the enzyme. The incubation mixture consisted of […] of 1 mg/mL aqueous solution of extract and […] of the appropriate […] para-nitrophenyl substrate made up in buffer at the optimum pH for the enzyme. The reactions were stopped by addition of […] 0.4 M glycine (pH 10.4) during the exponential phase of the reaction, which had been determined at the beginning using uninhibited assays in which water replaced the inhibitor. Final absorbances were read at 405 nm using a Versamax microplate reader (Molecular Devices, Wokingham, UK). Assays were carried out in triplicate, and the values given are means of the three replicates per assay. All reactions were run in water.

β-D-glucosidase (almond) = experiment: Glycosidase inhibition (Table 3 panel); settings: 1 mg/mL aqueous solution; run in water
Procedure: as §4

[7] = test system: N-acetyl-β-D-glucosaminidase (bovine kidney); experiment: Glycosidase inhibition (Table 3 panel); settings: 1 mg/mL aqueous solution; run in water
Procedure: as §4

[8] = test system: β-D-glucuronidase (bovine liver); experiment: Glycosidase inhibition (Table 3 panel); settings: 1 mg/mL aqueous solution; run in water
Procedure: as §4

α-D-glucosidase (yeast) [9] = target: T6, α-D-glucosidase (yeast) (Saccharomyces cerevisiae, UniProt P53341); experiment: Glycosidase inhibition (Table 3 panel); settings: 1 mg/mL aqueous solution, run in water; for inhibition at 1000 µg/mL (stock): read-out: Percentage inhibition α-D-Glucosidase Yeast
T6 construct: purchased Sigma-Aldrich
Procedure: All enzymes and para-nitrophenyl substrates were purchased from Sigma. Enzymes were assayed at 27 °C in citric acid (0.1 M)/disodium hydrogen phosphate (0.2 M) buffers at the optimum pH for the enzyme. The incubation mixture consisted of […] of 1 mg/mL aqueous solution of extract and […] of the appropriate 5 μM para-nitrophenyl substrate made up in buffer at the optimum pH for the enzyme. […] Assays were carried out in triplicate, and the values given are means of the three replicates per assay. All reactions were run in water.

α-D-glucosidase (yeast) [10] = target: T6, α-D-glucosidase (yeast); experiment: Glycosidase inhibition (Table 2 panel); settings: for inhibition at 100 µM / inhibition at 1000 µM: read-out: inhibition % α-D-Glucosidase Yeast
Source text: as §1, §2

[11] = test system: α-D-glucosidase (human lysosome); experiment: Glycosidase inhibition (Table 2 panel); settings: at 100 μM
[12] = test system: β-D-galactosidase (E. coli); experiment: Glycosidase inhibition (Table 2 panel); settings: at 100 μM
[13] = test system: α-D-glucosidase (rat intestine); experiment: Glycosidase inhibition (Table 3 panel); settings: 1 mg/mL aqueous solution; run in water
Procedure: as §4

[14] = test system: N-acetyl-β-D-hexosaminidase (rat intestine); experiment: Glycosidase inhibition (Table 3 panel); settings: 1 mg/mL aqueous solution; run in water
Procedure: as §4

[15] = test system: β-D-glucanase (T. Longibrachiatum); experiment: Glycosidase inhibition (Table 2 panel); settings: at 100 μM
[16] = test system: β-D-glucosidase (human lysosome); experiment: Glycosidase inhibition (Table 2 panel); settings: at 100 μM

T6 sequence (P53341 whole entry): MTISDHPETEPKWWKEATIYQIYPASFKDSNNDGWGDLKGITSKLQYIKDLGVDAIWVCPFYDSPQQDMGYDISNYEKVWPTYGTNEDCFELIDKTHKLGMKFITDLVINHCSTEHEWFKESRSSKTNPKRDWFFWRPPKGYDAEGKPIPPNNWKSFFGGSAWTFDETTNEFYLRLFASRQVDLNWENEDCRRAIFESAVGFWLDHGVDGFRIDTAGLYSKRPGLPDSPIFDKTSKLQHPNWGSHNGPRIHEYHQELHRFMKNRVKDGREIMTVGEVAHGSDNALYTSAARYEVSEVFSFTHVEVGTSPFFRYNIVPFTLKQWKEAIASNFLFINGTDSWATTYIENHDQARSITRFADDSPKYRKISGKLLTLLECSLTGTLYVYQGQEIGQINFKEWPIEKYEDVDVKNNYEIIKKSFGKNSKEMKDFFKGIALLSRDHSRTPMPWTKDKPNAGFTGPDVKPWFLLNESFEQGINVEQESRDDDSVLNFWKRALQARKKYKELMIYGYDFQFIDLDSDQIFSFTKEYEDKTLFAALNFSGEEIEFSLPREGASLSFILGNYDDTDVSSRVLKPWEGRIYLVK

| Molecule | inhibition % β-D-Glucuronidase E. coli ([1]; at 100 μM) | inhibition % Amyloglucosidase A. niger ([2]; at 100 μM) | inhibition % β-D-Glucuronidase Bovine Liver ([4]; at 100 μM) | inhibition at 100 µM ([5]; at 100 μM) | inhibition % α-D-Mannosidase Jack Bean ([6]; at 100 μM) | Percentage inhibition β-D-Glucosidase Almond (β-D-glucosidase (almond)) | Percentage inhibition β-D-Glucuronidase Bovine Liver [8] | Percentage inhibition α-D-Glucosidase Yeast (α-D-glucosidase (yeast) [9]) | inhibition % β-D-Glucuronidase E. coli ([1]; at 1000 μM) | inhibition % Amyloglucosidase A. niger ([2]; at 1000 μM) | inhibition % α-L-Fucosidase Bovine Kidney ([3]; at 1000 μM) | inhibition % α-D-Glucosidase Human Lysosome [11] | inhibition % β-D-Glucuronidase Bovine Liver ([4]; at 1000 μM) | inhibition % α-D-Mannosidase Jack Bean ([6]; at 1000 μM) | inhibition % β-D-Galactosidase E. coli [12] | Percentage inhibition α-D-Glucosidase Rat Intestine [13] | Percentage inhibition N-Acetyl-β-D-Hexosaminidase Rat Intestine [14] | inhibition % β-D-Glucanase T. Longibrachiatum [15] | inhibition % β-D-Glucosidase Human Lysosome [16] | inhibition at 1000 µg/mL (stock) (α-D-glucosidase (yeast) [9]) | further results |
| --- | --- | --- | --- | --- | --- | --- | --- | --- | --- | --- | --- | --- | --- | --- | --- | --- | --- | --- | --- | --- | --- |
| N[C@@H](Cc1ccc(B(O)O)cc1)C(=O)O [BPA, 4-borono-L-phenylalanine, reference compound] | ^cNI ^d(0.5%) | ^cNI ^d(0%) | ^cNI ^d(7.4%) | 10.9% | ^cNI ^d(1.1%) | 3.9% | −0.7% | – | – | – | – | – | – | – | – | – | – | – | – | – | inhibition % α-L-Fucosidase Bovine Kidney ([3]; at 100 μM): ^cNI ^d(0%); Inhibition over the glycosidases of Table 3 (several glycosidases): < 30%; Percentage inhibition N-Acetyl-β-D-glucosaminidase Bovine Kidney [7]: 6.7% |
| N[C@@H](Cc1ccc(B(O)O)cc1)C(=O)O [^10B-BPA, reference compound] | ^cNI ^d(2.4%) | ^cNI ^d(0%) | ^cNI ^d(0%) | – | ^cNI ^d(0%) | 3% | −1% | 3.4% | – | – | – | – | – | – | – | – | – | – | – | – | inhibition % α-D-Glucosidase Yeast (α-D-glucosidase (yeast) [10]; at 100 μM): ^cNI ^d(0%); inhibition % α-L-Fucosidase Bovine Kidney ([3]; at 100 μM): ^cNI ^d(0%); inhibition % β-D-Galactosidase Bovine Liver ([5]; at 100 μM): ^cNI ^d(0%); Inhibition over the glycosidases of Table 3 (several glycosidases): < 30%; Percentage inhibition N-Acetyl-β-D-glucosaminidase Bovine Kidney [7]: 6.3% |
| N-(3-Hydroxyphenyl)-1,4-dideoxy-1,4-imino-L-gulitol [meta 7] | ^cNI ^d(0.5%) | ^cNI ^d(5.1%) | ^cNI ^d(1.2%) | – | ^cNI ^d(0%) | 2.9% | −3% | 19.5% | ^aNI ^b(7.5%) | ^aNI ^b(2.1%) | ^aNI ^b(2.1%) | ^cNI ^d(0%) | ^aNI ^b(0%) | ^aNI ^b(0%) | ^cNI ^d(0%) | −10.7% | −2.5% | ^cNI ^d(0%) | ^cNI ^d(9.9%) | – | inhibition % α-D-Glucosidase Yeast (α-D-glucosidase (yeast) [10]; at 100 μM): ^cNI ^d(3.4%); inhibition % α-D-Glucosidase Yeast (α-D-glucosidase (yeast) [10]; at 1000 μM): ^aNI ^b(4.3%); inhibition % β-D-Galactosidase Bovine Liver ([5]; at 100 μM): ^cNI ^d(17.5%); inhibition % β-D-Galactosidase Bovine Liver ([5]; at 1000 μM): ^aNI ^b(8.1%) |
| CC1(C)O[C@H]2O[C@H]3[C@@H]([C@H]2O1)N(Cc1ccccc1B1OC(C)(C)C(C)(C)O1)C[C@H]3O [ortho 2, N-(2-Methylphenylboronic acid pinacol ester)-3,6-dideoxy-3,6-imino-1,2-O-isopropylidene-α-D-gulofuranose] | ^cNI ^d(4.1%) | ^cNI ^d(0%) | ^cNI ^d(2.2%) | – | ^cNI ^d(9.4%) | 73.3% | −1.8% | – | ^aNI ^b(5.2%) | ^aNI ^b(3.2%) | ^aNI ^b(7.8%) | ^cNI ^d(3.3%) | ^aNI ^b(8.4%) | ^aNI ^b(1.3%) | ^cNI ^d(8.8%) | −6.7% | 13.8% | ^cNI ^d(21%) | ^cNI ^d(5.6%) | -2% | inhibition at 100 µM (α-D-glucosidase (yeast) [10]): 1%; inhibition at 1000 µM (α-D-glucosidase (yeast) [10]): 0%; inhibition at 1000 µM ([5]; at 1000 μM): 21.8% |
| OC[C@H](O)[C@@H]1[C@H](O)[C@H](O)CN1Cc1cccc(B(O)O)c1 [meta 4, N-(3-Methylphenylboronic acid)-1,4-dideoxy-1,4-imino-L-gulitol] | ^cNI ^d(3.5%) | ^cNI ^d(6.6%) | ^cNI ^d(0%) | 24.6% | ^cNI ^d(0%) | 47.9% | −2.7% | – | ^aNI ^b(20.6%) | ^aNI ^b(3.6%) | ^aNI ^b(3.0%) | ^cNI ^d(7.2%) | ^aNI ^b(14.7%) | ^aNI ^b(0%) | ^cNI ^d(4.9%) | 41.1% | −2.2% | ^cNI ^d(1.2%) | ^cNI ^d(13.6%) | 23.5% | inhibition at 100 µM (α-D-glucosidase (yeast) [10]): 8.1%; inhibition at 1000 µM (α-D-glucosidase (yeast) [10]): 4.9% |
| CC1(C)O[C@H]2O[C@H]3[C@@H]([C@H]2O1)N(Cc1cccc(B2OC(C)(C)C(C)(C)O2)c1)C[C@H]3O [meta 2, N-(3-Methylphenylboronic acid pinacol ester)-3,6-dideoxy-3,6-imino-1,2-O-isopropylidene-α-D-gulofuranose] | ^cNI ^d(13.7%) | ^cNI ^d(1.4%) | ^cNI ^d(1.4%) | 2.2% | ^cNI ^d(7.5%) | 13.2% | 9.9% | 7.9% | ^aNI ^b(5.6%) | ^aNI ^b(0%) | ^aNI ^b(3.8%) | ^cNI ^d(3.9%) | ^aNI ^b(10.7%) | ^aNI ^b(0%) | ^cNI ^d(0%) | 16.8% | 11.5% | ^cNI ^d(3.9%) | ^cNI ^d(0%) | 9.3% | inhibition at 100 µM (α-D-glucosidase (yeast) [10]): 8.8%; inhibition at 1000 µM (α-D-glucosidase (yeast) [10]): 0%; inhibition at 1000 µM ([5]; at 1000 μM): 41.8% |

Source: publication PMC12655172, “Borylated 5-Membered Ring Iminosugars: Synthesis and Biological Evaluation for Glycosidase Inhibition and Anticancer Properties for Application in Boron Neutron Capture Therapy (BNCT)—Part 2” (Pharmaceuticals, 2025)
